Assay results published in patent US20140221455A1, “DIFFERENTIATION MODULATING AGENTS AND USES THEREFOR” (Verva Pharmaceuticals, Inc., priority 2002, published 2014).
“Also recorded” adds a separate entry of the source.

How the values were obtained:
Format in all cases: cell-based
[1] = system: FGF-1-induced differentiation of human subcutaneous preadipocytes; assay: PLC inhibition of FGF-1-induced differentiation (G3PDH activity); conditions: inhibitor present during replication phase, differentiation phase or both, SFM including rosiglitazone
Method: Human subcutaneous preadipocytes were isolated and subcultured in SCM in the presence and absence of FGF-1 with and without the PLC inhibitor U-73122 (Calbiochem). Cells were then allowed to reach confluence and differentiated using the standard chemically-modified SFM including rosiglitazone in the presence and absence of FGF1 with and without U-73122. Differentiation was assessed by G3PDH activity.

[2] = system: subcutaneous human preadipocytes gene expression; assay: Microarray analysis of human preadipocyte gene expression (Affymetrix); conditions: confluent preadipocytes in SCM+FGF1 vs SCM; change of at least 50% (CV<5%)
Method: Total RNA was isolated from confluent subcutaneous human preadipocytes isolated and grown in either SCM (control) or SCM+FGF1. cRNA was prepared and hybridized to chips and subsequently analyzed using the Affymetrix® system. Each treatment was represented by duplicate samples and two independent experiments were performed. Gene expression was considered to be influenced by FGF-1 if expression was consistently (CV<5%) increased or reduced by at least 50%.

[3] = system: human preadipocytes (subcutaneous and omental); assay: Preadipocyte proliferation assay (formazan/MTS colorimetric assay); conditions: for proliferation of human preadipocytes in response to growth factor: SCM + growth factors at 1 ng/mL for 48 hrs, relative to SCM control, MTS assay
Method: Subcutaneous and omental preadipocytes and human skin fibroblasts are plated separately at about 1×10^3 cells/well (subconfluent) in 96-well plates in DMEM/Ham's F12 1:1 plus 10% FCS (PA growth medium) and allowed to adhere at 37° C., 5% CO2 for 16-20 hrs. The medium is then changed to EC growth medium which is conditioned (see above) by exposure to either confluent subcutaneous or omental MVEC, human skin fibroblasts (HSF), or wells containing no cells (blank control) (each treatment is done in quadruplicate). In separate experiments subcutaneous and omental PAs are plated as above and subsequently treated with either S MVEC, O MVEC, human dermal EC(CADMEC) conditioned media, fresh EC growth medium, or blank control. After 48 hrs, preadipocyte cell number is assessed using a formazan colorimetric assay (Promega). The water soluble tetrazolium salt 3-(4,5-dimethylthiazol-2-yl)-5-(3-carboxymethoxyphenyl)-2-(4-sulfophenyl)-2H-tetrazolium (MTS) is added to each well at a concentration of 200 μg/mL. After incubation at 37° C. for 4 hrs, absorbance at 490 nm is measured using a Bio-Rad 3550 microplate reader. The validity of this assay is tested in two ways; 1) preadipocytes were plated at 250; 500; 1000; 2000; 4000 cells per well (in quadruplicate) and absorbance is measured at 490 nm; 2) after measurement at A490 nm the cells are subsequently stained with propidium iodide and direct cell counts carried out using fluorescence microscopy.
Preadipocytes were isolated and plated in 96-well plates at 500 cells/well (sub-confluent) in serum containing medium for 12-18 hrs to allow adherence. Cells were then incubated in SCM+growth factors at 1 ng/mL for 48 hrs and a MTS proliferation assay (Promega) was performed.

[4] = system: human preadipocytes (omental and subcutaneous); assay: Preadipocyte differentiation assessed by G3PDH activity; conditions: for adipogenic effect of FGF present during replication and/or differentiation (combination treatments): SCM +/- FGF during replication, SFM+rosiglitazone +/- FGF during differentiation, G3PDH activity; for preadipocyte differentiation / adipogenic effect (summary statements): human preadipocytes cultured with the growth factor; for differentiation of human preadipocytes after exposure to growth factor or MVEC-conditioned medium during subculture: subcultured up to 2 months with growth factor or EC-DMEM, differentiated in serum-free medium including 0.10M Rosiglitazone, G3PDH assay at day 21
Method: Activity is assessed as previously described (Adams et al. J Clin Invest 100: 3149-53 1998) (Hutley et al in Primary Mesenchymal Cells 1st ed. Kluwer Academic 5: 173-87 2001).
For differentiation experiments, preadipocytes were isolated and subcultured in endothelial cell-conditioned medium (EC-DMEM) or in the presence of growth factor for up to 2 months and then allowed to reach confluence in 6-well plates. Cells were then differentiated in serum-free, chemically modified differentiation medium including 0.10M Rosiglitazone. Differentiation was assessed at day 21 using a standard G3PDH assay.
Human omental and subcutaneous preadipocytes were isolated and subcultured in SCM in the presence and absence of FGF-1 or FGF-2. Upon reaching confluence, the cells were differentiated in standard chemically modified SFM+rosiglitazone in the presence and absence of FGF-1 or FGF-2. Differentiation was assessed by G3PDH activity. […] Presence throughout both processes was additive.

PLCγ2 = assay: PLCγ expression in human preadipocytes (indirect immunofluorescence, Western blot); conditions: grown to confluence in SCM + FGF-1 vs SCM alone; immunofluorescence and Western blot
Method: Expression of phospholipase Cγ2 (PLCγ2) protein is analyzed using Western blotting with immunofluorescent labeling procedures using a monoclonal anti-PLCγ2 antibody (Santa Cruz sc-5283).
Human preadipocytes were cultured in SCM+/−FGF-1 in 24-well plates. PLCγ expression was examined by indirect immuno-fluorescence. Non-immune primary and secondary antibody-only controls gave no staining.

[5] = system: human omental and subcutaneous preadipocytes; assay: Differentiation of human preadipocytes in serum-containing medium (cytoplasmic lipid accumulation); conditions: subcultured in SCM+FGF-1, differentiated in SCM plus insulin and (days 1-3) dexamethasone and rosiglitazone; vs SCM alone
From the text: A standard requirement of human preadipocyte differentiation in vitro is the obligatory withdrawal of serum. This contrasts with the murine adipocyte cell lines (e.g., 3T3-L1) that have high differentiation potential in SCM. It is assumed that the culture system developed for the human cells either induces down-regulation of factors necessary for differentiation, or promotes the expression of anti-differentiative factors (or both). In these experiments human omental and subcutaneous preadipocytes were isolated and subcultured in the presence of FGF-1. Cells were then differentiated in SCM plus insulin and (days 1-3) dexamethasone and rosiglitazone.

| Molecule | FGF-1-induced differentiation in the presence of PLC inhibitor [1] | C/EBPα gene expression [2] | FGFR-1 gene expression [2] | FGFR-2 gene expression [2] | FGFR-3 gene expression [2] | PLCγ2 gene expression [2] | PPARγ gene expression [2] | proliferation of human preadipocytes in response to growth factor [3] | preadipocyte growth and replication (summary statements) ([3]; human preadipocytes cultured with the growth factor) | differentiation potential of preadipocytes grown with purified FGF-1 ([4]; FGF-1 present from the time of isolation, compared with absence of FGF-1 or other MVEC-derived factors, data not shown) | adipogenic effect of FGF present during replication and/or differentiation (combination treatments) [4] | preadipocyte differentiation / adipogenic effect (summary statements) [4] | differentiation of human preadipocytes after exposure to growth factor or MVEC-conditioned medium during subculture [4] | PLCγ2 protein expression in human preadipocytes (PLCγ2) | differentiation in the presence of serum (cytoplasmic lipid accumulation) [5] |
| --- | --- | --- | --- | --- | --- | --- | --- | --- | --- | --- | --- | --- | --- | --- | --- |
| COc1ccc2c(c1)CC[C@@H]1[C@@H]2CC[C@]2(C)[C@@H](NCCCCCCN3C(=O)C=CC3=O)CC[C@@H]12 [U-73122] | significantly impaired |  |  |  |  |  |  |  |  |  |  |  |  |  |  |
| FGF-1: acidic fibroblast growth factor (aFGF), also known as FGF-1 |  | upregulation | Up-regulation | Up-regulation | down-regulation | Increased expression | upregulation | marked increase in proliferation | markedly promoted their growth and replication; also recorded: promotes human preadipocyte replication | similar, but not additive, increase in differentiation potential | adipogenic if present either during replication or during differentiation; also recorded: greater adipogenic effect than FGF-2 | significant positive effect on the differentiation; also recorded: dramatically increases potential for subsequent differentiation | more pronounced effect than FGF-2; also recorded: marked increase in differentiation | increased | significant differentiation |
| FGF-2: basic FGF (also known as FGF-2) |  |  |  |  |  |  |  | marked increase in proliferation |  |  | adipogenic if present either during replication or during differentiation | pro-adipogenic effect | greater that the effect seen with IGF-1; also recorded: marked increase in differentiation |  |  |
